# Reference: patent US20080118990A1, “Assay For Lipoproteins Using Lumiphore K-37” (Science and Technology Facilities Council, priority 2004, published 2008)
# What was measured:
# LDL [1] = experiment: K-37 fluorescence in LDL with and without octanoate (Example 2); type: binding
# Description: The dye K-37 was added at a concentration of 0.5 mM to LDL at a total lipid concentration of 5 mM, in the presence and absence of 50 mg/ml HSA. Measurements were made with and without the addition of 0.1 M sodium octanoate, which acted as a ligand binding inhibitor.
# [2] = target: T1, Human Serum Albumin (HSA) (Homo sapiens, UniProt P02768); experiment: K-37 fluorescence with HSA with and without octanoate, blocking of HSA (Example 2)
# LDL [3] = experiment: Nile Red fluorescence in LDL with and without octanoate (Example 3); type: binding
# [4] = target: T1, Human Serum Albumin (HSA); experiment: Nile Red fluorescence with HSA with and without octanoate (Example 3); type: binding
# HDL = experiment: Nile Red fluorescence in HDL compared with VLDL and LDL at different excitation wavelengths (Example 6); design: species or system human
# Description: Further optimisation of the assay according to the invention Further tests were performed on human serum samples to investigate optimum excitation wavelengths for inducing fluorescence indicative of HDL levels according to the method of the invention.
# The inventors tested a number of wavelengths and have established that, when using Nile Red, that an excitation wavelength of 600 nm and an emission wavelength of 620 nm gives optimal results (see FIG. 15). The inventors were surprised that this excitation wavelength was optimal because it is to the very long wavelength edge of the spectrum.
# For certain samples the inventors observed a noisier plot with an excitation wavelength of 460 nm and an emission wavelength of 620 nm (see FIG. 16).
# The inventors believe that Nile Red is about 5 times more fluorescent in HDL than VLDL and LDL when excited at 600 nm as opposed to excitation at 460 nm where it is only about 2 times more fluorescent. This gives a better signal to noise when subtracting from the standard curve of LDL plus VLDL.
# [5] = target: drug binding domain of HSA (Homo sapiens, UniProt P02768); experiment: Displacement of Nile Red from HSA by agents that block the drug binding domain (Example 6); details: agent at about 5 mM, without affecting the lipoprotein fluorescence
# From the text: (§1) This lead the inventors to realise that the HDL/Nile red assay may be improved further by using an additional blocker. They tried agents that block the drug binding domain of HSA. […] The benzoic acid has the added bonus of quenching the Nile Red residual fluorescence in solution by about 20%.
# [6] = Quenching of Nile Red residual fluorescence in solution (Example 6); type: physicochemical
# From the text: as §1
# T1 sequence (P02768 25-609): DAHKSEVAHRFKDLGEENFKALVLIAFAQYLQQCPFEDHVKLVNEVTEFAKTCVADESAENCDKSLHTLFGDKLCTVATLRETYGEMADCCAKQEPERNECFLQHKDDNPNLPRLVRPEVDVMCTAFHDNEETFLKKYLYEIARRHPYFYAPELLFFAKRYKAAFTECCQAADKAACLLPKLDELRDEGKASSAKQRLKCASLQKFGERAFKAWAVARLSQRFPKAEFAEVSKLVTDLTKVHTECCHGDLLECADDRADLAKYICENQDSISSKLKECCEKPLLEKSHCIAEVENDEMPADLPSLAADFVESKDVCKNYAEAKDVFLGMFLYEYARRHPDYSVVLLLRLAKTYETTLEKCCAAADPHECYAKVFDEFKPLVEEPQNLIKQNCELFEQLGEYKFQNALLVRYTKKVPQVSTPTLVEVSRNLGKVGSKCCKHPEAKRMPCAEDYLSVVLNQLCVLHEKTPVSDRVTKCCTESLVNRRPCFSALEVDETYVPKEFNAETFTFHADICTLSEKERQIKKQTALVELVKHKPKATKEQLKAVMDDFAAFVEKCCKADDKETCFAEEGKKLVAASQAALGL
# Chain of drug binding domain of HSA (P02768 25-609): as above
structure (smiles),measurement,setting,value
"CN(C)c1ccc(/C=C/C(=O)c2ccc(S(=O)(=O)C(F)F)cc2)cc1 [K-37, 4-dimethylamino-4′-difluoromethyl-sulphonyl-benzylidene-acetophenone]",Fluorescence Intensity,LDL [1]; 0.5 mM K-37 plus 5 mM LDL + 0.1 M sodium octanoate,209700 units
same,Fluorescence Intensity,"LDL [1]; 0.5 mM K-37 plus 5 mM LDL, no octanoate",213500 units
same,Fluorescence Intensity,[2]; 0.5 mM K-37 plus 50 mg/ml HSA + 0.1 M sodium octanoate,3600 units
same,Fluorescence Intensity,"[2]; 0.5 mM K-37 plus 50 mg/ml HSA, no octanoate",79300 units
CCN(CC)c1ccc2nc3c4ccccc4c(=O)cc-3oc2c1 [Nile Red],Fluorescence Intensity,LDL [3]; 0.5 mM Nile Red plus 5 mM LDL + 50 mM octanoate,183.786 units
same,Fluorescence Intensity,"LDL [3]; 0.5 mM Nile Red plus 5 mM LDL, no octanoate",187.532 units
same,Fluorescence Intensity,[4]; 0.5 mM Nile Red plus 50 mg/ml HSA + 50 mM octanoate,9.118 units
same,Fluorescence Intensity,"[4]; 0.5 mM Nile Red plus 50 mg/ml HSA, no octanoate",58.905 units
same,times more fluorescent in HDL than VLDL and LDL,HDL; excitation at 460 nm,about 2 times
same,times more fluorescent in HDL than VLDL and LDL,HDL; excited at 600 nm,about 5 times
O=C(O)c1ccccc1 [benzoic acid],displacement of Nile Red from HSA,[5],worked to displace the Nile Red from HSA
same,quenching of Nile Red residual fluorescence in solution,[6],about 20%
"CCCCCCCC(=O)[O-].[Na+] [octanoate, sodium octanoate]",effect of octanoate on K-37 fluorescence in LDL,"LDL [1]; 0.1 M sodium octanoate, 5 mM LDL, 0.5 mM K-37",little effect
same,effect of octanoate on Nile Red fluorescence in LDL,"LDL [3]; 50 mM octanoate, 5 mM LDL, 0.5 mM Nile Red",little effect
